Where “and” joins values, the source holds several entries; their conditions need not be identical. Identical values can stand only once. Inconclusive results and toxic doses are left out.
Tested on: P388 leukemia ip, CD2F1 mice, survival T/C
Test: NCI In Vivo Anticancer Drug Screen. Data for tumor model P388 Leukemia (intraperitoneal) in CD2F1 (CDF1) mice
Conditions: endpoint: median survival time, higher = longer survival
Method in brief: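 Mice carrying the transplanted tumor received test compound or vehicle. Survival was recorded in each group, and the value is the treated-group measurement divided by that of the vehicle-treated control group.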

[1] = dose: 12.5 mg/kg/injection, schedule: Q01DX009 (ip), vehicle: saline with Tween-80
[2] = dose: 25.0 mg/kg/injection, schedule: Q01DX009 (ip), vehicle: saline with Tween-80
[3] = dose: 50.0 mg/kg/injection, schedule: Q01DX009 (ip), vehicle: saline with Tween-80
[4] = dose: 50.0 mg/kg/injection, schedule: Q01DX005 (ip), vehicle: saline
[5] = dose: 100.0 mg/kg/injection, schedule: Q01DX005 (ip), vehicle: saline
[6] = dose: 200.0 mg/kg/injection, schedule: Q01DX005 (ip), vehicle: saline
[7] = dose: 100.0 mg/kg/injection, schedule: Q01DX009 (ip), vehicle: saline
[8] = dose: 60.0 mg/kg/injection, schedule: Q01DX005 (ip), vehicle: Klucel (hydroxypropylcellulose) (HPC)
[9] = dose: 120.0 mg/kg/injection, schedule: Q01DX005 (ip), vehicle: Klucel (hydroxypropylcellulose) (HPC)
[10] = dose: 240.0 mg/kg/injection, schedule: Q01DX005 (ip), vehicle: Klucel (hydroxypropylcellulose) (HPC)
[11] = dose: 100.0 mg/kg/injection, schedule: Q01DX009 (ip), vehicle: saline with Tween-80
[12] = dose: 200.0 mg/kg/injection, schedule: Q01DX009 (ip), vehicle: saline with Tween-80
[13] = dose: 400.0 mg/kg/injection, schedule: Q01DX009 (ip), vehicle: saline with Tween-80
[14] = dose: 25.0 mg/kg/injection, schedule: Q01DX005 (ip), vehicle: Klucel (hydroxypropylcellulose) (HPC)
[15] = dose: 50.0 mg/kg/injection, schedule: Q01DX005 (ip), vehicle: Klucel (hydroxypropylcellulose) (HPC)
[16] = dose: 200.0 mg/kg/injection, schedule: Q01DX005 (ip), vehicle: Klucel (hydroxypropylcellulose) (HPC)
[17] = dose: 50.0 mg/kg/injection, schedule: Q01DX005 (ip), vehicle: saline with Tween-80
[18] = dose: 100.0 mg/kg/injection, schedule: Q01DX005 (ip), vehicle: saline with Tween-80
[19] = dose: 200.0 mg/kg/injection, schedule: Q01DX005 (ip), vehicle: saline with Tween-80
[20] = dose: 100.0 mg/kg/injection, schedule: Q01DX005 (ip), vehicle: Klucel (hydroxypropylcellulose) (HPC)
[21] = dose: 100.0 mg/kg/injection, schedule: Q01DX001 (ip), vehicle: saline with Tween-80
[22] = dose: 200.0 mg/kg/injection, schedule: Q01DX001 (ip), vehicle: saline with Tween-80
[23] = dose: 60.0 mg/kg/injection, schedule: Q01DX005 (ip), vehicle: saline with Tween-80
[24] = dose: 120.0 mg/kg/injection, schedule: Q01DX005 (ip), vehicle: saline with Tween-80
[25] = dose: 240.0 mg/kg/injection, schedule: Q01DX005 (ip), vehicle: saline with Tween-80

With CC(C)Cc1cn(O)c2nc(=N)nc(N)c-2n1 the T/C [1] was 100 % of control, the T/C [2] was 93 % of control and the T/C [3] was 101 % of control.
In the case of O=P(N1CC1)(N1CC1)N1CC2CCC(CC2)C1, the T/C (dose: 3.13 mg/kg/injection, schedule: Q01DX009 (ip), vehicle: saline with Tween-80) is reported as 109 % of control, the T/C (dose: 6.25 mg/kg/injection, schedule: Q01DX009 (ip), vehicle: saline with Tween-80) is reported as 154 % of control and the T/C [1] is reported as 204 % of control. For the same compound, the T/C (dose: 12.5 mg/kg/injection, schedule: Q01DX009 (ip), vehicle: saline) was 159 % of control, the T/C (dose: 12.5 mg/kg/injection, schedule: Q04DX003 (ip), vehicle: saline) was 120 % of control and the T/C (dose: 25.0 mg/kg/injection, schedule: Q01DX009 (ip), vehicle: saline) was 118 % of control. For the same compound, the T/C (dose: 25.0 mg/kg/injection, schedule: Q04DX003 (ip), vehicle: saline) was 166 % of control and the T/C (dose: 50.0 mg/kg/injection, schedule: Q04DX003 (ip), vehicle: saline) was 154 % of control.
CC1=CC(=N/Cl)/C=CC/1=N/Cl was tested, and the T/C [4] was 109 % of control, the T/C [5] was 111 % of control and the T/C [6] was 114 % of control.
For CCOC(=O)CCC(NC(=O)OCCNCCCl)C(=O)OCC (stereo not given), the T/C [7] was 86 % of control, the T/C (dose: 200.0 mg/kg/injection, schedule: Q01DX009 (ip), vehicle: saline) was 86 % of control and the T/C (dose: 400.0 mg/kg/injection, schedule: Q01DX009 (ip), vehicle: saline) was 95 % of control.
O=C(c1ccccc1)C1Nc2ccccc2CO1 (stereo not given) was tested, and the T/C [8] was 99 % of control, the T/C [9] was 107 % of control and the T/C [10] was 97 % of control.
O=C(/C=C/c1ccc(Cl)cc1)c1ccccc1O was tested, and the T/C [2] was 98 % of control, the T/C [3] was 103 % of control and the T/C [11] was 107 % of control. The T/C [12] was 100 % of control.
Cc1nc(=O)oc(NC(C)C)c1Cl was tested, and the T/C [2] was 100 % of control and 107 % of control, the T/C [3] was 106 % of control and 95 % of control and the T/C (dose: 50.0 mg/kg/injection, schedule: Q01DX009 (ip), vehicle: saline) was 110 % of control. For the same compound, the T/C [11] was 113 % of control and 97 % of control, the T/C [7] was 103 % of control and the T/C [12] was 99 % of control and 116 % of control.
With O=C(O)C1CCCCC1c1c2ccc(=O)cc-2oc2cc(O)ccc12 (stereo not given) the T/C [11] was 90 % of control, the T/C [12] was 95 % of control and the T/C [13] was 100 % of control.
In the case of CC(O)C1CCNCC1 (stereo not given), the T/C [4] is reported as 102 % of control and the T/C [5] is reported as 97 % of control.
COc1ccc(/C=N/n2cnc3c(sc4ccccc43)c2=O)cc1 was tested, and the T/C (dose: 12.5 mg/kg/injection, schedule: Q01DX005 (ip), vehicle: Klucel (hydroxypropylcellulose) (HPC)) was 99 % of control, the T/C [14] was 100 % of control and the T/C [15] was 87 % of control and 92 % of control. The T/C [16] was 92 % of control.
O=c1ncc(F)cn1C1OC(CO)C(O)C1O (stereo not given) was tested, and the T/C (dose: 1.5 mg/kg/injection, schedule: Q01DX009 (ip), vehicle: Klucel (hydroxypropylcellulose) (HPC)) was 106 % of control, the T/C (dose: 3.0 mg/kg/injection, schedule: Q01DX009 (ip), vehicle: Klucel (hydroxypropylcellulose) (HPC)) was 87 % of control and the T/C (dose: 6.0 mg/kg/injection, schedule: Q01DX009 (ip), vehicle: Klucel (hydroxypropylcellulose) (HPC)) was 86 % of control.
With O=C1CN(CCCN2CCOCC2)CC(=O)N2Cc3ccccc3CN12 the T/C [4] was 95 % of control, the T/C [5] was 110 % of control and the T/C [6] was 108 % of control.
Cc1ccc(S(=O)(=O)n2cccn2)cc1 was tested, and the T/C (dose: 6.25 mg/kg/injection, schedule: Q01DX009 (ip), vehicle: distilled water + Tween-80) was 95 % of control, the T/C (dose: 12.5 mg/kg/injection, schedule: Q01DX009 (ip), vehicle: distilled water + Tween-80) was 100 % of control and the T/C (dose: 25.0 mg/kg/injection, schedule: Q01DX009 (ip), vehicle: distilled water + Tween-80) was 94 % of control. For the same compound, the T/C (dose: 25.0 mg/kg/injection, schedule: Q01DX009 (ip), vehicle: other) was 88 % of control, the T/C (dose: 50.0 mg/kg/injection, schedule: Q01DX009 (ip), vehicle: distilled water + Tween-80) was 105 % of control and the T/C (dose: 100.0 mg/kg/injection, schedule: Q01DX009 (ip), vehicle: distilled water + Tween-80) was 99 % of control. For the same compound, the T/C (dose: 100.0 mg/kg/injection, schedule: Q01DX009 (ip), vehicle: other) was 113 % of control, the T/C (dose: 200.0 mg/kg/injection, schedule: Q01DX009 (ip), vehicle: other) was 104 % of control and the T/C (dose: 400.0 mg/kg/injection, schedule: Q01DX009 (ip), vehicle: other) was 112 % of control.
In the case of COC(=O)C1=CCOc2c1c(C(=O)OC)nn2C, the T/C [17] is reported as 97 % of control, the T/C [18] is reported as 98 % of control and the T/C [19] is reported as 96 % of control.
In the case of CCCCOc1ccc(C(C)c2cc3c(cc2OC)OCO3)cc1 (stereo not given), the T/C [14] is reported as 107 % of control, the T/C [15] is reported as 95 % of control and the T/C [20] is reported as 101 % of control. The T/C [16] was 98 % of control.
For O=C(O)c1ccc(OCCOc2ccccc2)cc1, the T/C (dose: 50.0 mg/kg/injection, schedule: Q01DX001 (ip), vehicle: saline with Tween-80) was 100 % of control, the T/C [21] was 100 % of control and the T/C [22] was 90 % of control.
CS(=O)(=O)c1cc([N+](=O)[O-])cc([N+](=O)[O-])c1Cl was tested, and the T/C (dose: 2.5 mg/kg/injection, schedule: Q01DX009 (ip), vehicle: saline with Tween-80) was 109 % of control and the T/C (dose: 5.0 mg/kg/injection, schedule: Q01DX009 (ip), vehicle: saline with Tween-80) was 90 % of control.
In the case of CCC(=O)Nc1ccc(Br)cc1, the T/C [3] is reported as 102 % of control, the T/C [11] is reported as 94 % of control and the T/C [12] is reported as 96 % of control. The T/C [13] was 96 % of control.
O=[N+]([O-])c1ccc(NN=NCCF)cc1 was tested, and the T/C (dose: 0.44 mg/kg/injection, schedule: Q01DX005 (ip), vehicle: other) was 102 % of control and 94 % of control, the T/C (dose: 0.88 mg/kg/injection, schedule: Q01DX005 (ip), vehicle: other) was 102 % of control and 94 % of control and the T/C (dose: 1.75 mg/kg/injection, schedule: Q01DX005 (ip), vehicle: other) was 105 % of control and 124 % of control and 94 % of control. For the same compound, the T/C (dose: 3.5 mg/kg/injection, schedule: Q01DX005 (ip), vehicle: other) was 100 % of control and 106 % of control and 94 % of control and the T/C (dose: 7.0 mg/kg/injection, schedule: Q01DX005 (ip), vehicle: other) was 109 % of control.
In the case of O=C1N2CCCSC2=NC1(c1ccccc1)c1ccccc1, the T/C [23] is reported as 97 % of control, the T/C [24] is reported as 98 % of control and the T/C [25] is reported as 89 % of control.
For O=C(CN1CCOCC1)c1cc2c(c3ccccc13)CCCC2, the T/C [15] was 94 % of control, the T/C [20] was 99 % of control and the T/C [16] was 96 % of control.
With COc1cc2ccccc2c2c1OP(=O)(O)Oc1c(OC)cc3ccccc3c1-2 the T/C [21] was 100 % of control, the T/C [22] was 92 % of control and the T/C (dose: 400.0 mg/kg/injection, schedule: Q01DX001 (ip), vehicle: saline with Tween-80) was 114 % of control.
With CCC(C)(C)c1ccc(OCCCCNC(=O)c2ccc3ccccc3c2O)c(C(C)(C)CC)c1 the T/C [8] was 90 % of control, the T/C [9] was 89 % of control and the T/C [10] was 86 % of control.
O=C1CC(O)C(Cc2ccccc2)N1 (stereo not given) was tested, and the T/C [17] was 97 % of control, the T/C [18] was 98 % of control and the T/C [19] was 97 % of control.
For OCCCNc1nc2cc(Cl)ccc2o1, the T/C [23] was 119 % of control, the T/C [24] was 103 % of control and the T/C [25] was 100 % of control.
For O=[N+]([O-])c1ccc(Sc2c3ccccc3nc3ccccc23)nc1, the T/C (dose: 25.0 mg/kg/injection, schedule: Q01DX005 (ip), vehicle: saline with Tween-80) was 108 % of control, the T/C [17] was 100 % of control and the T/C [18] was 106 % of control. For the same compound, the T/C [19] was 100 % of control.
In the case of CC(C)NC(=O)OCc1c(COC(=O)NC(C)C)c(S(=O)c2ccccc2)n2c1CCC2 (stereo not given), the T/C (dose: 25.0 mg/kg/injection, schedule: Q01DX005 (ip), vehicle: distilled water + Tween-80) is reported as 113 % of control, the T/C (dose: 50.0 mg/kg/injection, schedule: Q01DX005 (ip), vehicle: distilled water + Tween-80) is reported as 110 % of control and the T/C (dose: 100.0 mg/kg/injection, schedule: Q01DX005 (ip), vehicle: distilled water + Tween-80) is reported as 113 % of control.

Source: PubChem BioAssay AID330 (DTP/NCI, 2004)
